Earlier results in patent US20110091560A1, “COMPOSITIONS OF NANOPARTICLES AND METHODS OF MAKING THE SAME” (The Burnham Institute for Medical Research, priority 2009, published 2011).
Where a name gives a salt, the structure may show the parent alone. Read-outs that look alike come from different tables or passages of the source.

Settings: Log P, octanol and water

Compound | Partition Coefficient | Partition Coefficient (listed as paclitaxel)
CC1=C(CO)C2=C(C)C3(CC3)[C@@](C)(O)C(=O)C2=C1 [Irofulven] | 4.7 | –
C[C@]1(c2nc3c(C(N)=O)cccc3[nH]2)CCCN1 [Veliparib (ABT-888), Veliparib] | 1 | –
Cc1nc(N)nc(N)c1-c1ccc(Cl)c(Cl)c1 [Metoprine] | 2.6 | –
CO[C@H]1C[C@@H]2CC[C@@H](C)[C@@](O)(O2)C(=O)C(=O)N2CCCC[C@H]2C(=O)O[C@H]([C@H](C)C[C@@H]2CC[C@@H](O)[C@H](OC)C2)CC(=O)[C@H](C)/C=C(\C)[C@@H](O)[C@@H](OC)C(=O)[C@H](C)C[C@H](C)/C=C/C=C/C=C/1C [Rapamycin] | 6.9 | –
C=C1C[C@@H]2[C@H](CC[C@]3(C)C(=O)CC[C@@H]23)[C@@]2(C)C=CC(=O)C=C12 [Exemestane] | 3.8 | –
CN(Cc1cnc2nc(N)nc(N)c2n1)c1ccc(C(=O)N[C@@H](CCC(=O)O)C(=O)O)cc1 [methotrexate] | −0.7 | –
COc1cc([C@@H]2c3cc4c(cc3[C@@H](O[C@@H]3O[C@@H]5CO[C@@H](C)O[C@H]5[C@H](O)[C@H]3O)[C@H]3COC(=O)[C@H]23)OCO4)cc(OC)c1O [etoposide] | 0.06 | –
NCCC(O)(P(=O)(O)O)P(=O)(O)O [Pamidronate] | −7 | –
CO[C@H]1C[C@@H]2CC[C@@H](C)[C@@](O)(O2)C(=O)C(=O)N2CCCC[C@H]2C(=O)O[C@H]([C@H](C)C[C@@H]2CC[C@@H](OCCO)[C@H](OC)C2)CC(=O)[C@H](C)/C=C(\C)[C@@H](O)[C@@H](OC)C(=O)[C@H](C)C[C@H](C)/C=C/C=C/C=C/1C [Everolimus] | 6.8 | –
O=P(O)(O)C(O)(Cc1cccnc1)P(=O)(O)O [Risedronate] | −5.8 | –
O=P(O)(O)C(Cl)(Cl)P(=O)(O)O [Clodronate] | −5.6 | –
N#Cc1ccc(C(c2ccc(C#N)cc2)n2cncn2)cc1 [Letrozole] | 3.1 | –
NC(=O)N1CCC(CC(=O)N2CCC([C@H]3c4ncc(Br)cc4CCc4cc(Cl)cc(Br)c43)CC2)CC1 [Lonafarnib] | 3.1 | –
C[C@]12CC[C@@H]3c4ccc(O)cc4C[C@@H](CCCCCCCCC[S+]([O-])CCCC(F)(F)C(F)(F)F)[C@H]3[C@@H]1CC[C@@H]2O (some centres unmarked) [Fulvestrant (SERD), Fulvestrant] | 8.5 | –
Cc1[nH]c2ccccc2c1CCNCc1ccc(/C=C/C(=O)NO)cc1 [Panobinostat] | 2.8 | –
CC(O)(P(=O)(O)O)P(=O)(O)O [Etidronate] | −6 | –
CCCC(CCC)C(=O)O [Valproic acid] | 2.6 | –
Nc1nc(F)nc2c1ncn2[C@@H]1O[C@H](CO)[C@@H](O)[C@@H]1O [fludarabine] | −1.3 | –
O=c1[nH]cc(F)c(=O)[nH]1 [Example 5-FU, 5-FU] | −0.6 | –
O=C(CCCCCCC(=O)Nc1ccccc1)NO [Vorinostat (SAHA), Vorinostat] | 1.4 | –

Compound | Partition Coefficient | Partition Coefficient (listed as paclitaxel)
C=CCNC1=C2C[C@@H](C)C[C@H](OC)[C@H](O)[C@@H](C)/C=C(\C)[C@H](OC(N)=O)[C@@H](OC)/C=C\C=C(/C)C(=O)NC(=CC1=O)C2=O [Example 17-AAG, 17-AAG] | 3.4 | –
O=C(/C=C/c1ccc(CN(CCO)CCc2c[nH]c3ccccc23)cc1)NO [Dacinostat] | 2.1 | –
O=C(c1ccc(OCCN2CCCCC2)cc1)c1c(-c2ccc(O)cc2)sc2cc(O)ccc12 [Raloxifene] | 6.3 | –
CC(=O)O[C@H]1C(=O)[C@@]2(C)[C@H]([C@H](OC(=O)c3ccccc3)[C@]3(O)C[C@H](OC(=O)[C@H](O)[C@@H](NC(=O)c4ccccc4)c4ccccc4)C(C)=C1C3(C)C)[C@]1(OC(C)=O)CO[C@@H]1C[C@@H]2O [Paclitaxel] | 3.6 | about 3.6
CS(=O)(=O)CCNCc1ccc(-c2ccc3ncnc(Nc4ccc(OCc5cccc(F)c5)c(Cl)c4)c3c2)o1 [Lapatinib] | 5.1 | –
COc1cc2ncnc(Nc3ccc(F)c(Cl)c3)c2cc1OCCCN1CCOCC1 [Gefitinib] | 4.5 | –
C[C@]12CCC(=O)C(O)=C1CC[C@@H]1[C@@H]2CC[C@]2(C)C(=O)CC[C@@H]12 [Formestane] | 3.1 | –
CO[C@H]1C[C@@H]2CC[C@@H](C)[C@@](O)(O2)C(=O)C(=O)N2CCCC[C@H]2C(=O)O[C@H]([C@H](C)C[C@@H]2CC[C@@H](OC(=O)C(C)(CO)CO)[C@H](OC)C2)CC(=O)[C@H](C)/C=C(\C)[C@@H](O)[C@@H](OC)C(=O)[C@H](C)C[C@H](C)/C=C/C=C/C=C/1C [Temsirolimus] | 6.8 | –
O=P(O)(O)C(Sc1ccc(Cl)cc1)P(=O)(O)O [Tiludronate] | 2.3 | –
C#Cc1cccc(Nc2ncnc3cc(OCCOC)c(OCCOC)cc23)c1 [Erlotinib HCl] | 3.9 | –
Cc1nc(Nc2ncc(C(=O)Nc3c(C)cccc3Cl)s2)cc(N2CCN(CCO)CC2)n1 [Dasatinib] | 3.9 | –
Nc1ccccc1NC(=O)c1ccc(CNc2nccc(-c3cccnc3)n2)cc1 [Mocetinostat] | 2.7 | –
CC(C)C[C@H](NC(=O)[C@H](Cc1ccccc1)NC(=O)c1cnccn1)B(O)O [Bortezomib] | −0.4 | –
Nc1ccn([C@@H]2O[C@H](CO)[C@@H](O)C2(F)F)c(=O)n1 [gemcitabine] | −1.4 | –
CN(C)CCOc1ccc(/C(=C(/CCCl)c2ccccc2)c2ccccc2)cc1 [Toremifene] | 5.7 | –
O=P1(N(CCCl)CCCl)NCCCO1 (centres unmarked) [cyclosphosphamide] | 0.3 | –
Nc1ccccc1NC(=O)c1ccc(CNC(=O)OCc2cccnc2)cc1 [Entinostat] | 3.1 | –
CCCCCN(C)CCC(O)(P(=O)(O)O)P(=O)(O)O [Ibandronate sodium] | −4.4 | –
O=C(/C=C/c1cccc(S(=O)(=O)Nc2ccccc2)c1)NO [Belinostat] | 1 | –
CC(C)(C#N)c1cc(Cn2cncn2)cc(C(C)(C)C#N)c1 [Anastrozole] | 3.5 | –
